Test results published in US6737383B1, “Herbicidal oxadiazolidines” (priority 1999, dated 2004).

Legend:
cocklebur = assay: Test B pre/postemergence cocklebur; type: in vivo, Xanthium strumarium
Procedure, shortened: (§1)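 Herbicidal effect was estimated by eye on a ten-point control scale after plants spent twelve to sixteen days in a greenhouse following soil or foliar treatment. Foliar sprays targeted plants at one to four leaves; all doses were formulated in a non-phytotoxic solvent with surfactant.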

blackgrass = assay: Test B pre/postemergence blackgrass; type: in vivo, Alopecurus myosuroides
Procedure, shortened: as §1

purple nutsedge = assay: Test B pre/postemergence purple nutsedge; type: in vivo, Cyperus rotundus
Procedure, shortened: as §1

soybean = assay: Test B pre/postemergence soybean; type: in vivo, Glycine max
Procedure, shortened: as §1

velvetleaf = assay: Test B pre/postemergence velvetleaf; type: in vivo, Abutilon theophrasti
Procedure, shortened: as §1

wheat = assay: Test B pre/postemergence wheat; type: in vivo, Triticum aestivum
Procedure, shortened: as §1

pigweed = assay: Test B pre/postemergence pigweed; type: in vivo, Amaranthus retroflexus
Procedure, shortened: as §1

crabgrass = assay: Test B pre/postemergence crabgrass; type: in vivo, Digitaria sanguinalis
Procedure, shortened: as §1

rape = assay: Test B pre/postemergence rape; type: in vivo, Brassica napus
Procedure, shortened: as §1

surinam grass = assay: Test B pre/postemergence surinam grass; type: in vivo, Brachiaria decumbens
Procedure, shortened: as §1

giant foxtail = assay: Test B pre/postemergence giant foxtail; type: in vivo, Setaria faberii
Procedure, shortened: as §1

bedstraw = assay: Test B pre/postemergence bedstraw; type: in vivo, Galium aparine; details: Preemergence
Procedure, shortened: as §1

corn = assay: Test B pre/postemergence corn; type: in vivo, Zea mays
Procedure, shortened: as §1

sugar beet = assay: Test B pre/postemergence sugar beet; type: in vivo, Beta vulgaris
Procedure, shortened: as §1

morningglory = assay: Test B pre/postemergence morningglory; type: in vivo, Ipomoea hederacea
Procedure, shortened: as §1

wild oat = assay: Test B pre/postemergence wild oat; type: in vivo, Avena fatua
Procedure, shortened: as §1

[1] = Postemergence, Rate 62 g/ha, scale 0 to 10, 0 is no effect, 10 is complete control
[2] = Postemergence, Rate 125 g/ha, scale of 0 to 10 where 0 is no effect and 10 is complete control
[3] = Preemergence, Rate 62 g/ha, scale of 0 to 10 where 0 is no effect and 10 is complete control
[4] = Preemergence, Rate 125 g/ha, scale of 0 to 10 where 0 is no effect and 10 is complete control
[5] = Preemergence, Rate 250 g/ha, scale 0 (no effect) to 10 (complete control)
[6] = Preemergence, Rate 500 g/ha, scale of 0 to 10 where 0 is no effect and 10 is complete control
[7] = Rate 250 g/ha, Postemergence, scale 0 to 10, 0 is no effect, 10 is complete control
[8] = Rate 500 g/ha, Postemergence, scale 0 to 10, 0 is no effect, 10 is complete control

CC(C)N(C(=O)n1oc(=O)n(CCCCl)c1=O)c1ccc(F)cc1 [Compound 713]
7: Blackgrass plant response rating (blackgrass; [7]) | Blackgrass plant response rating (blackgrass; [8]) | Velvetleaf plant response rating (velvetleaf; [8]) | Plant response rating, Redroot pigweed (pigweed; [4]) | Plant response rating, B. signalgrass (surinam grass; [4]) | B. signalgrass plant response rating (surinam grass; [8]) | Sugarbeets plant response rating (sugar beet; [5]) | Morningglory plant response rating (morningglory; [7])
9: Blackgrass plant response rating (blackgrass; [5]) | Plant response rating, Blackgrass (blackgrass; [6]) | Redroot pigweed plant response rating (pigweed; [7]) | Redroot pigweed plant response rating (pigweed; [8]) | Crabgrass plant response rating (crabgrass; [2]) | Crabgrass plant response rating (crabgrass; [7]) | Crabgrass plant response rating (crabgrass; [8]) | Plant response rating, B. signalgrass (surinam grass; [6]) | Giant foxtail plant response rating (giant foxtail; [2]) | Giant foxtail plant response rating (giant foxtail; [7]) | Giant foxtail plant response rating (giant foxtail; [8])
0: Cocklebur plant response rating (cocklebur; [3]) | Plant response rating, Cocklebur (cocklebur; [4]) | Cocklebur plant response rating (cocklebur; [5]) | Plant response rating, Cocklebur (cocklebur; [6]) | Plant response rating, Nutsedge (purple nutsedge; [1]) | Nutsedge plant response rating (purple nutsedge; [2]) | Nutsedge plant response rating (purple nutsedge; [3]) | Plant response rating, Nutsedge (purple nutsedge; [4]) | Nutsedge plant response rating (purple nutsedge; [5]) | Nutsedge plant response rating (purple nutsedge; [7]) | Soybean plant response rating (soybean; [3]) | Plant response rating, Soybean (soybean; [4]) | Soybean plant response rating (soybean; [5]) | Plant response rating, Wheat (wheat; [1]) | Wheat plant response rating (wheat; [3]) | Plant response rating, Wheat (wheat; [4]) | Plant response rating, Rape (rape; [1]) | Rape plant response rating (rape; [2]) | Plant response rating, B. signalgrass (surinam grass; [1]) | Bedstraw plant response rating (bedstraw; Rate 62 g/ha, scale of 0 to 10 where 0 is no effect and 10 is complete control) | Plant response rating, Bedstraw (bedstraw; Rate 125 g/ha, scale of 0 to 10 where 0 is no effect and 10 is complete control) | Plant response rating, Corn (corn; [1]) | Corn plant response rating (corn; [2]) | Corn plant response rating (corn; [3]) | Plant response rating, Corn (corn; [4]) | Corn plant response rating (corn; [5]) | Corn plant response rating (corn; [7]) | Plant response rating, Sugarbeets (sugar beet; [1]) | Sugarbeets plant response rating (sugar beet; [2]) | Sugarbeets plant response rating (sugar beet; [7]) | Morningglory plant response rating (morningglory; [3]) | Plant response rating, Morningglory (morningglory; [4]) | Morningglory plant response rating (morningglory; [5]) | Plant response rating, Wild oats (wild oat; [1]) | Wild oats plant response rating (wild oat; [2])
4: Soybean plant response rating (soybean; [2]) | Rape plant response rating (rape; [3]) | Plant response rating, Rape (rape; [4]) | Plant response rating, Giant foxtail (giant foxtail; [1]) | Plant response rating, Sugarbeets (sugar beet; [4])
10: Crabgrass plant response rating (crabgrass; [3]) | Plant response rating, Crabgrass (crabgrass; [4]) | Crabgrass plant response rating (crabgrass; [5]) | Giant foxtail plant response rating (giant foxtail; [3]) | Plant response rating, Giant foxtail (giant foxtail; [4]) | Giant foxtail plant response rating (giant foxtail; [5]) | Morningglory plant response rating (morningglory; [8])
3: Cocklebur plant response rating (cocklebur; [7]) | Blackgrass plant response rating (blackgrass; [2]) | Nutsedge plant response rating (purple nutsedge; [8]) | Plant response rating, Soybean (soybean; [1]) | Plant response rating, Velvetleaf (velvetleaf; [1]) | B. signalgrass plant response rating (surinam grass; [2]) | Sugarbeets plant response rating (sugar beet; [3]) | Morningglory plant response rating (morningglory; [2])
5: Blackgrass plant response rating (blackgrass; [3]) | Soybean plant response rating (soybean; [7]) | Soybean plant response rating (soybean; [8]) | Plant response rating, Velvetleaf (velvetleaf; [4]) | Velvetleaf plant response rating (velvetleaf; [5]) | B. signalgrass plant response rating (surinam grass; [3]) | B. signalgrass plant response rating (surinam grass; [7]) | Corn plant response rating (corn; [8]) | Sugarbeets plant response rating (sugar beet; [8]) | Plant response rating, Wild oats (wild oat; [4]) | Wild oats plant response rating (wild oat; [8])
1: Plant response rating, Cocklebur (cocklebur; [1]) | Plant response rating, Blackgrass (blackgrass; [1]) | Wheat plant response rating (wheat; [2]) | Wheat plant response rating (wheat; [5]) | Wild oats plant response rating (wild oat; [7])
6: Cocklebur plant response rating (cocklebur; [8]) | Velvetleaf plant response rating (velvetleaf; [2]) | Velvetleaf plant response rating (velvetleaf; [7]) | Redroot pigweed plant response rating (pigweed; [3]) | Rape plant response rating (rape; [7]) | Rape plant response rating (rape; [8]) | Plant response rating, Bedstraw (bedstraw; Rate 500 g/ha, scale of 0 to 10 where 0 is no effect and 10 is complete control)
2: Cocklebur plant response rating (cocklebur; [2]) | Velvetleaf plant response rating (velvetleaf; [3]) | Wheat plant response rating (wheat; [7]) | Wheat plant response rating (wheat; [8]) | Plant response rating, Redroot pigweed (pigweed; [1]) | Plant response rating, Crabgrass (crabgrass; [1]) | Bedstraw plant response rating (bedstraw; Rate 250 g/ha, scale 0 (no effect) to 10 (complete control)) | Plant response rating, Morningglory (morningglory; [1]) | Wild oats plant response rating (wild oat; [3])
8: Plant response rating, Blackgrass (blackgrass; [4]) | Redroot pigweed plant response rating (pigweed; [5]) | Rape plant response rating (rape; [5]) | B. signalgrass plant response rating (surinam grass; [5]) | Wild oats plant response rating (wild oat; [5])
